# Data published in ChEMBL document CHEMBL1201862, “PubChem BioAssay data set” (2004).
#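 Growth conditions: 96-well plates. Treatment: test compound, 48 hours, 5 concentrations. Analysis: linear interpolation between bracketing concentrations; unreached endpoints set to highest concentration. GI50: concentration for 50% inhibition of growth.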 Calls of active or inactive are those of the source. Rule as the data show it: active = GI50 up to about 1.1 µM and inactive = higher.
# Assays:
# Test in all cases: growth of human tumour cells (NCI), 48 h
# SF-539 = tested on: SF-539
# HOP-62 = tested on: HOP-62
# CAKI-1 = tested on: CAKI-1
# 786-0 = tested on: 786-0
# HCT-116 = tested on: HCT-116
# K562 = tested on: K562
# OVCAR-4 = tested on: OVCAR-4
# IGROV-1 = tested on: IGROV-1
# UACC-257 = tested on: UACC-257
# M19-MEL = tested on: M19-MEL
# SF-295 = tested on: SF-295
# A498 = tested on: A498
# KM-20L2 = tested on: KM-20L2
# ACHN = tested on: ACHN
# OVCAR-8 = tested on: OVCAR-8
# HCT-15 = tested on: HCT-15
# SK-MEL-2 = tested on: SK-MEL-2
# HT-29 = tested on: HT-29
# NCI-H226 = tested on: NCI-H226
# SF-268 = tested on: SF-268
# COLO 205 = tested on: COLO 205
# HCC 2998 = tested on: HCC 2998
# EKVX = tested on: EKVX
# HOP-92 = tested on: HOP-92
# SK-MEL-28 = tested on: SK-MEL-28
# SNB-19 = tested on: SNB-19
# SN12C = tested on: SN12C
# A549 = tested on: A549
# KM12 = tested on: KM12
# SNB-75 = tested on: SNB-75
# HL-60 = tested on: HL-60
# DMS-273 = tested on: DMS-273
# HOP-18 = tested on: HOP-18
# OVCAR-5 = tested on: OVCAR-5
# OVCAR-3 = tested on: OVCAR-3
# Malme-3M = tested on: Malme-3M
# UACC-62 = tested on: UACC-62
# DMS-114 = tested on: DMS-114
# NCI-H23 = tested on: NCI-H23
# DLD-1 = tested on: DLD-1
# SNB-78 = tested on: SNB-78
# SW-620 = tested on: SW-620
# SK-OV-3 = tested on: SK-OV-3
# NCI-H460 = tested on: NCI-H460
# UO-31 = tested on: UO-31
# U-251 = tested on: U-251
# RPMI-8226 = tested on: RPMI-8226
# RXF 631 = tested on: RXF 631
# RXF 393 = tested on: RXF 393
# M14 = tested on: M14
# LXFL 529 = tested on: LXFL 529
# SR = tested on: SR
# SK-MEL-5 = tested on: SK-MEL-5
# TK-10 = tested on: TK-10
# LOX IMVI = tested on: LOX IMVI
# NCI-H522 = tested on: NCI-H522
# MOLT-4 = tested on: MOLT-4
# CCRF-CEM = tested on: CCRF-CEM
# XF498 = tested on: XF498
smiles,measurement,setting,value
O=C1C=C(Nc2cc(Cl)ccc2Cl)c2ccccc2C1=O,GI50,SF-539,33.3 µM (inactive)
same,GI50,HOP-62,26.1 µM (inactive)
same,GI50,CAKI-1,32.2 µM (inactive)
same,GI50,786-0,34.8 µM (inactive)
same,GI50,HCT-116,34.1 µM (inactive)
same,GI50,K562,13.5 µM (inactive)
same,GI50,OVCAR-4,47.6 µM (inactive)
same,GI50,IGROV-1,64.1 µM (inactive)
same,GI50,UACC-257,24 µM (inactive)
same,GI50,M19-MEL,15.7 µM (inactive)
same,GI50,SF-295,25.1 µM (inactive)
same,GI50,A498,26.6 µM (inactive)
same,GI50,KM-20L2,> 100 µM (inactive)
same,GI50,ACHN,26.1 µM (inactive)
same,GI50,OVCAR-8,16 µM (inactive)
same,GI50,HCT-15,26.5 µM
same,GI50,SK-MEL-2,15.4 µM (inactive)
same,GI50,HT-29,86.9 µM (inactive)
same,GI50,NCI-H226,23.9 µM (inactive)
same,GI50,SF-268,64.3 µM (inactive)
same,GI50,COLO 205,36.1 µM (inactive)
same,GI50,HCC 2998,27.5 µM (inactive)
same,GI50,EKVX,> 100 µM (inactive)
same,GI50,HOP-92,20.4 µM (inactive)
same,GI50,SK-MEL-28,38.6 µM (inactive)
same,GI50,SNB-19,46.2 µM (inactive)
same,GI50,SN12C,38.5 µM (inactive)
same,GI50,A549,35.9 µM (inactive)
same,GI50,KM12,23 µM (inactive)
same,GI50,SNB-75,25.9 µM (inactive)
same,GI50,HL-60,15.8 µM (inactive)
same,GI50,DMS-273,21.3 µM (inactive)
same,GI50,HOP-18,22.6 µM (inactive)
same,GI50,OVCAR-5,39 µM (inactive)
same,GI50,OVCAR-3,23 µM (inactive)
same,GI50,Malme-3M,19.4 µM (inactive)
same,GI50,UACC-62,16.9 µM (inactive)
same,GI50,DMS-114,25.5 µM (inactive)
same,GI50,NCI-H23,20.7 µM (inactive)
same,GI50,DLD-1,45.3 µM (inactive)
same,GI50,SNB-78,> 100 µM (inactive)
same,GI50,SW-620,29.3 µM (inactive)
same,GI50,SK-OV-3,51.6 µM (inactive)
same,GI50,NCI-H460,25.9 µM (inactive)
same,GI50,UO-31,23.9 µM (inactive)
same,GI50,U-251,25.2 µM (inactive)
same,GI50,RPMI-8226,20.9 µM (inactive)
same,GI50,RXF 631,> 100 µM (inactive)
same,GI50,RXF 393,55.5 µM (inactive)
same,GI50,M14,19.9 µM (inactive)
Cc1ccc(NC(=O)CCCC(=O)CC(=O)c2ccc(Br)cc2)cc1,GI50,SF-539,> 100 µM (inactive)
same,GI50,HOP-62,> 100 µM (inactive)
same,GI50,CAKI-1,> 100 µM (inactive)
same,GI50,786-0,> 100 µM (inactive)
same,GI50,LXFL 529,> 100 µM (inactive)
same,GI50,HCT-116,> 100 µM (inactive)
same,GI50,K562,> 100 µM (inactive)
same,GI50,OVCAR-4,> 100 µM (inactive)
same,GI50,SR,> 100 µM (inactive)
same,GI50,IGROV-1,> 100 µM (inactive)
same,GI50,UACC-257,> 100 µM (inactive)
same,GI50,M19-MEL,> 100 µM (inactive)
same,GI50,SK-MEL-5,> 100 µM (inactive)
same,GI50,SF-295,> 100 µM (inactive)
same,GI50,A498,> 100 µM (inactive)
same,GI50,KM-20L2,> 100 µM (inactive)
same,GI50,ACHN,> 100 µM (inactive)
same,GI50,OVCAR-8,> 100 µM (inactive)
same,GI50,TK-10,> 100 µM (inactive)
same,GI50,HCT-15,> 100 µM
same,GI50,SK-MEL-2,> 100 µM (inactive)
same,GI50,HT-29,> 100 µM (inactive)
same,GI50,NCI-H226,> 100 µM (inactive)
same,GI50,SF-268,> 100 µM (inactive)
same,GI50,COLO 205,> 100 µM (inactive)
same,GI50,HCC 2998,> 100 µM (inactive)
same,GI50,EKVX,> 100 µM (inactive)
same,GI50,LOX IMVI,> 100 µM (inactive)
same,GI50,HOP-92,> 100 µM (inactive)
same,GI50,SK-MEL-28,> 100 µM (inactive)
same,GI50,NCI-H522,> 100 µM (inactive)
same,GI50,SNB-19,> 100 µM (inactive)
same,GI50,SN12C,> 100 µM (inactive)
same,GI50,A549,> 100 µM (inactive)
same,GI50,MOLT-4,> 100 µM (inactive)
same,GI50,KM12,> 100 µM (inactive)
same,GI50,SNB-75,34.4 µM (inactive)
same,GI50,DMS-273,> 100 µM (inactive)
same,GI50,HOP-18,> 100 µM (inactive)
same,GI50,OVCAR-5,> 100 µM (inactive)
same,GI50,OVCAR-3,> 100 µM (inactive)
same,GI50,Malme-3M,> 100 µM (inactive)
same,GI50,UACC-62,> 100 µM (inactive)
same,GI50,DMS-114,> 100 µM (inactive)
same,GI50,NCI-H23,> 100 µM (inactive)
same,GI50,DLD-1,> 100 µM (inactive)
same,GI50,SNB-78,> 100 µM (inactive)
same,GI50,SW-620,> 100 µM (inactive)
same,GI50,SK-OV-3,> 100 µM (inactive)
same,GI50,NCI-H460,> 100 µM (inactive)
same,GI50,UO-31,> 100 µM (inactive)
same,GI50,CCRF-CEM,> 100 µM (inactive)
same,GI50,U-251,> 100 µM (inactive)
same,GI50,RPMI-8226,> 100 µM (inactive)
same,GI50,RXF 631,> 100 µM (inactive)
same,GI50,RXF 393,> 100 µM (inactive)
same,GI50,M14,> 100 µM (inactive)
CN1CCCN2CCN(C)CCCN(CC1)CC2,GI50,SF-539,> 100 µM (inactive)
same,GI50,HOP-62,> 100 µM (inactive)
same,GI50,CAKI-1,> 100 µM (inactive)
same,GI50,786-0,> 100 µM (inactive)
same,GI50,LXFL 529,> 100 µM (inactive)
same,GI50,HCT-116,> 100 µM (inactive)
same,GI50,K562,> 100 µM (inactive)
same,GI50,OVCAR-4,> 100 µM (inactive)
same,GI50,SR,> 100 µM (inactive)
same,GI50,IGROV-1,> 100 µM (inactive)
same,GI50,M19-MEL,> 100 µM (inactive)
same,GI50,A498,> 100 µM (inactive)
same,GI50,SK-MEL-2,> 100 µM (inactive)
same,GI50,NCI-H226,> 100 µM (inactive)
same,GI50,SF-268,> 100 µM (inactive)
same,GI50,COLO 205,> 100 µM (inactive)
same,GI50,HCC 2998,> 100 µM (inactive)
same,GI50,LOX IMVI,> 100 µM (inactive)
same,GI50,HOP-92,> 100 µM (inactive)
same,GI50,SK-MEL-28,> 100 µM (inactive)
same,GI50,NCI-H522,> 100 µM (inactive)
same,GI50,SN12C,> 100 µM (inactive)
same,GI50,MOLT-4,> 100 µM (inactive)
same,GI50,XF498,> 100 µM (inactive)
same,GI50,SNB-75,> 100 µM (inactive)
same,GI50,HL-60,> 100 µM (inactive)
same,GI50,DMS-273,> 100 µM (inactive)
same,GI50,Malme-3M,> 100 µM (inactive)
same,GI50,UACC-62,> 100 µM (inactive)
same,GI50,DMS-114,> 100 µM (inactive)
same,GI50,NCI-H23,> 100 µM (inactive)
same,GI50,DLD-1,> 100 µM (inactive)
same,GI50,SNB-78,> 100 µM (inactive)
same,GI50,SK-OV-3,> 100 µM (inactive)
same,GI50,NCI-H460,> 100 µM (inactive)
same,GI50,UO-31,> 100 µM (inactive)
same,GI50,CCRF-CEM,> 100 µM (inactive)
same,GI50,RPMI-8226,> 100 µM (inactive)
same,GI50,RXF 631,> 100 µM (inactive)
same,GI50,M14,> 100 µM (inactive)
